Test results published in article PMC6377466 (Proceedings of the National Academy of Sciences of the …, 2019).

What was measured:
NRAS^Q61H = target: T1, NRAS^Q61H (Homo sapiens, UniProt P01111, Q61H); assay: cell BRET RAS-effector interaction assay, dose response […]; format: cell-based
T1 construct: full-length (RLuc8 fusion); with CRAF

HRAS^G12V = target: T2, HRAS^G12V (Homo sapiens, UniProt P01112, G12V); assay: as above; format: cell-based
T2 construct: full-length (RLuc8 fusion); with CRAF

KRAS166^G12V = target: T3, KRAS166^G12V (Homo sapiens, UniProt P01116, G12V); assay: SPR screen and waterLOGSY NMR; format: binding
T3 construct: gene KRAS; KRAS166

SMILES | cell BRET RAS-effector interaction assay, dose response 5-20 μM (NRAS^Q61H) | cell BRET RAS-effector interaction assay, dose response 5-20 μM (HRAS^G12V) | SPR screen and waterLOGSY NMR (KRAS166^G12V)
COc1cccc(-c2ccc(Nc3ccc(CN(C)C)cc3)c(OC)c2F)c1 [Ch-3] | Ch-3 interferes with NRAS and HRAS isoforms using the BRET biosensor assay | Ch-3 interferes with NRAS and HRAS isoforms using the BRET biosensor assay | –
CCCN1CCN(C(=O)c2c[nH]cn2)CC(Cc2ccc(-c3ccccc3)cc2)C1=O (stereo not shown) [PPIN-1] | – | – | PPIN-1 and -2 were confirmed to bind to KRAS166^G12V
COc1cccc(-c2cccc(CC3(C(=O)NCCCn4ccnc4)CCOCC3)c2)c1 [PPIN-2] | – | – | PPIN-1 and -2 were confirmed to bind to KRAS166^G12V
